# Molecular target: T1, Nuclear factor erythroid 2-related factor 2 (Homo sapiens, UniProt Q16236)
# T1 sequence (Q16236 whole entry): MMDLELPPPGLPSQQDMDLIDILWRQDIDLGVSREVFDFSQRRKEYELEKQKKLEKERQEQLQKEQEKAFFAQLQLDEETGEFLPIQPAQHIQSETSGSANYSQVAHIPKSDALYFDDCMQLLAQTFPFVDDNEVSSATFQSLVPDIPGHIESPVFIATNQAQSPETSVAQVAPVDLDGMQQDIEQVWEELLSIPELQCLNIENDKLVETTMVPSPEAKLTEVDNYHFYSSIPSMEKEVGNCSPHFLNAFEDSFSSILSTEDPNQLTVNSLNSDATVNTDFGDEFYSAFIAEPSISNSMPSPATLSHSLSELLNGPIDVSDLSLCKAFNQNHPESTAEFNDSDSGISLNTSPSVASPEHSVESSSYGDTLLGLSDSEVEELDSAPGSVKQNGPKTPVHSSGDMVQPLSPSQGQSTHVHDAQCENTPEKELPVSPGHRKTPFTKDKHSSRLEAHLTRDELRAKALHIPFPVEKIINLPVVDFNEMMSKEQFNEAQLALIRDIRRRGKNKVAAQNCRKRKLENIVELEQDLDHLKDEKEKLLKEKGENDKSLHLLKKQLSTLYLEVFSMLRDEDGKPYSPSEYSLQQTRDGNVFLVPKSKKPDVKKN
# Test: Activation of Nrf2 (unknown origin) expressed in human HepG2 cells after 5 hrs by ARE-driven luciferase reporter gene assay
row,EC50 [µM],Structure (SMILES)
1,21.1,Cc1ccc(C(=O)/C=C/c2ccccc2)c(C)c1
2,21,COc1cc(/C=C/C(=O)CC(=O)/C=C/c2ccc(O)c(OC)c2)ccc1O [CHEBI:3962]
3,1.32,COc1cc(OC)c(OC)cc1/C=C/C(=O)/C=C/c1cc(OC)c(OC)cc1OC [Go-Y021]

# More lines, now with the values behind:
row,Structure (SMILES),EC50 [µM]
1,COc1cc(/C=C2\CCC/C(=C\c3cc(OC)cc(OC)c3)C2=O)cc(OC)c1,5.3
2,"COc1cc(/C=C/C(=O)/C=C/c2ccc(O)c(OC)c2)ccc1O [(1E,4E)-1,5-Bis-(4-hydroxy-3-methoxy-phenyl)-penta-1,4-dien-3-one]",9.9
3,"O=C(/C=C/c1ccccc1O)/C=C/c1ccccc1O [US9187397, 20q]",3.3
